Here are results for 10 compounds from patent US20050182025A1, “Amidinylphenyl compounds and their use as fungicides” (priority 2002, published 2005).

Format in all cases: in vivo
For test [1], the system named is Erysiphe graminis f. sp. tritici. The test is described as follows: Test A: preventive spray on wheat seedlings, wheat powdery mildew, disease rating. To be noted: wheat seedlings sprayed to run-off, inoculated the following day with Erysiphe graminis f. sp. tritici, rated after 7 days at 20° C.; test concentration not given. The method in brief: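 Wheat seedlings sprayed to run-off with compound suspension (200 ppm ≈ 500 g/ha) in acetone/water with surfactant, inoculated next day with Erysiphe graminis f. sp. tritici spores. After 7 days at 20 °C, disease rated 0–100 as % control relative to untreated plants.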

A further test relates to Puccinia recondita. Nature of the test: Test B: preventive spray on wheat seedlings, wheat leaf rust, disease rating. As to conditions: wheat seedlings sprayed to run-off, inoculated the following day with Puccinia recondita, 24 h saturated atmosphere then 6 days at 20° C.; test concentration not given. The method in brief: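 Compound suspended in acetone/water (50/50) with 250 ppm Trem 014 surfactant, sprayed to run-off on wheat seedlings (200 ppm ≈ 500 g/ha); P. recondita spores inoculated next day. Plants held 24 h saturated at 20° C, then 6 days at 20° C; disease rated as % control relative to untreated (100 = full control).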

The test system of the next test is Septoria nodorum. Nature of the test: Test C: preventive spray on wheat seedlings, Septoria glume blotch, disease rating. To be noted: wheat seedlings sprayed to run-off, inoculated the following day with Septoria nodorum, 48 h saturated atmosphere then 9 days at 20° C.; test concentration not given. The procedure, abridged:
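Wheat seedlings were sprayed to run-off with compound suspensions in acetone/water containing 250 ppm Trem 014 (200 ppm equals 500 g/ha), then inoculated with Septoria nodorum spores next day. Plants were held 48 h saturated at 20° C., then 9 days at 20° C. Disease control was rated 0–100 relative to controls.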

`Cc1cc(NC(=O)NCC(C)(C)C)c(C)cc1N=CN(C)C` [compound 190]: the “Test A disease control rating (100 = 100% disease control, 0 = no disease control relative to the controls)” value in test [1] turned out to be 0%. Moreover, the “Test B disease control rating (100 = 100% disease control, 0 = no disease control relative to the controls)” value in the test with Puccinia recondita turned out to be 68%. The “Test C disease control rating (100 = 100% disease control, 0 = no disease control relative to the controls)” value with Septoria nodorum came to 0%.

As to `CCN(CC)C(=S)Nc1cc(C)c(OCCCC(C)(C)C)cc1C` [compound 191], the “Test A disease control rating (100 = 100% disease control, 0 = no disease control relative to the controls)” value in test [1] came out at 63%. In addition, the “Test B disease control rating (100 = 100% disease control, 0 = no disease control relative to the controls)” value in the test on Puccinia recondita is recorded as 99%. In addition, the “Test C disease control rating (100 = 100% disease control, 0 = no disease control relative to the controls)” value in the test with Septoria nodorum came out at 91%.

Take `Cc1cc(OCCCC(C)(C)C)c(C)cc1NC(=S)N(C)C` [compound 192]: the “Test A disease control rating (100 = 100% disease control, 0 = no disease control relative to the controls)” value in test [1] was 99%. Further, in the test with Puccinia recondita, the “Test B disease control rating (100 = 100% disease control, 0 = no disease control relative to the controls)” value amounted to 100%. Also, the “Test C disease control rating (100 = 100% disease control, 0 = no disease control relative to the controls)” value with Septoria nodorum stood at 100%.

`Cc1cc(NC(=O)N(C)CC(C)(C)C)c(C)cc1N=CN(C)C` [compound 193]: the “Test A disease control rating (100 = 100% disease control, 0 = no disease control relative to the controls)” value in test [1] is given as 0%. Moreover, in the test with Puccinia recondita, the “Test B disease control rating (100 = 100% disease control, 0 = no disease control relative to the controls)” value was 23%. Also, the “Test C disease control rating (100 = 100% disease control, 0 = no disease control relative to the controls)” value in the test on Septoria nodorum came to 0%.

With `CCN(C)C(=S)Nc1cc(C)c(OCCCC(C)(C)C)cc1C` [compound 194], in test [1], the “Test A disease control rating (100 = 100% disease control, 0 = no disease control relative to the controls)” value worked out at 99%. Moreover, the “Test B disease control rating (100 = 100% disease control, 0 = no disease control relative to the controls)” value with Puccinia recondita amounted to 100%. Also, in the test with Septoria nodorum, the “Test C disease control rating (100 = 100% disease control, 0 = no disease control relative to the controls)” value is listed as 100%.

In the case of `CCN(C)C=Nc1cc(C)c(OCCC[Si](C)(C)C)cc1C` [compound 196], the “Test A disease control rating (100 = 100% disease control, 0 = no disease control relative to the controls)” value in test [1] was found to be 100%. Moreover, in the test on Puccinia recondita, the “Test B disease control rating (100 = 100% disease control, 0 = no disease control relative to the controls)” value turned out to be 100%. For the same compound, the “Test C disease control rating (100 = 100% disease control, 0 = no disease control relative to the controls)” value in the test on Septoria nodorum is listed as 100%.

With `CCN(C)C=Nc1cc(Cl)c(OC(C)CCC(C)C)cc1C` (stereo not drawn) [compound 198], the “Test A disease control rating (100 = 100% disease control, 0 = no disease control relative to the controls)” value in test [1] is reported as 100%. Besides, the “Test B disease control rating (100 = 100% disease control, 0 = no disease control relative to the controls)” value in the test on Puccinia recondita was determined as 100%. Also, the “Test C disease control rating (100 = 100% disease control, 0 = no disease control relative to the controls)” value with Septoria nodorum is 100%.

Regarding `CCN(C)C=Nc1cc(C)c(OCCCC(C)(C)C)cc1C` [compound 199], the “Test A disease control rating (100 = 100% disease control, 0 = no disease control relative to the controls)” value in test [1] is on record as 100%. In the test with Puccinia recondita, the “Test B disease control rating (100 = 100% disease control, 0 = no disease control relative to the controls)” value is 100%. Moreover, in the test on Septoria nodorum, the “Test C disease control rating (100 = 100% disease control, 0 = no disease control relative to the controls)” value came to 100%.

Regarding `CCN(C)C=Nc1cc(C)c(OCCCC(C)C)c(Cl)c1C` [compound 200], in test [1], the “Test A disease control rating (100 = 100% disease control, 0 = no disease control relative to the controls)” value came out at 100%. Further, in the test on Puccinia recondita, the “Test B disease control rating (100 = 100% disease control, 0 = no disease control relative to the controls)” value worked out at 100%. In the test on Septoria nodorum, the “Test C disease control rating (100 = 100% disease control, 0 = no disease control relative to the controls)” value amounted to 100%.

Regarding `CCN(C)C=Nc1cc(C)c(OCCCC(C)(C)C)c(Cl)c1C` [compound 201], the “Test A disease control rating (100 = 100% disease control, 0 = no disease control relative to the controls)” value in test [1] is listed as 100%. For the same compound, the “Test B disease control rating (100 = 100% disease control, 0 = no disease control relative to the controls)” value with Puccinia recondita is given as 100%. Besides, the “Test C disease control rating (100 = 100% disease control, 0 = no disease control relative to the controls)” value with Septoria nodorum was found to be 100%.
